According to ChEMBL document CHEMBL1134875, “Binding modes of two novel dinucleotide inhibitors of HIV-1 integrase” (Bioorg Med Chem Lett, 2002):

Legend:
[1] = target: T1, Human immunodeficiency virus type 1 integrase (Human immunodeficiency virus 1, UniProt Q7ZJM1); assay: Compound was tested for the inhibition HIV integrase strand transfer activity
[2] = target: T1, Human immunodeficiency virus type 1 integrase; assay: Compound was tested for the inhibition HIV integrase 3'-processing activity

T1 sequence (Q7ZJM1 whole entry): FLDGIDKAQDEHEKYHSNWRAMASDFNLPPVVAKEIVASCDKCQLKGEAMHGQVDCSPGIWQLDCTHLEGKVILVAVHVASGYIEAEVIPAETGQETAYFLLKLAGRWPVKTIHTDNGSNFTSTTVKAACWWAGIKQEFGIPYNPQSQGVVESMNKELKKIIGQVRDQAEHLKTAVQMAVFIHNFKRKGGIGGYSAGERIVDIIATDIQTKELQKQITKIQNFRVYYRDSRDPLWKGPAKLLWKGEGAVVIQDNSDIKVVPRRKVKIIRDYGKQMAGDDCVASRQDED

SMILES: Nc1ccn([C@H]2C[C@@H](O)[C@@H](COP(=O)(O)O[C@@H]3[C@H](COP(=O)(O)O)OC[C@@H]3n3cnc4c(N)ncnc43)O2)c(=O)n1
- IC50 [1]: 25 µM
- IC50 [2]: 19 µM
